PubChem BioAssay (NCI)
Several values for one entry are separate records, joined by “and”; a condition that tells them apart may be missing. Equal values may be shown once.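 Exposure lasted 48 hours, with cells grown in 96-well plates and compounds tested at five concentrations. GI50 is the concentration that inhibits growth by half. TGI denotes the concentration required for complete inhibition of growth.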

Legend:
Test in all cases: DTP human tumour cell line panel, 48 h
[1] = test system: 786-0 renal
[2] = test system: A498 renal
[3] = test system: A549 NSCLC
[4] = test system: ACHN renal
[5] = test system: BT-549 breast
[6] = test system: CAKI-1 renal
[7] = test system: CCRF-CEM leukemia
[8] = test system: COLO 205 colon
[9] = test system: DLD-1 colon
[10] = test system: DMS 114 small cell lung
[11] = test system: DMS 273 small cell lung
[12] = test system: DU-145 prostate
[13] = test system: EKVX NSCLC
[14] = test system: HCC-2998 colon
[15] = test system: HCT-116 colon
[16] = test system: HCT-15 colon
[17] = test system: HL-60(TB) leukemia
[18] = test system: HOP-62 NSCLC
[19] = test system: HOP-92 NSCLC
[20] = test system: HS 578T breast
[21] = test system: HT29 colon
[22] = test system: IGROV1 ovarian
[23] = test system: K-562 leukemia
[24] = test system: KM12 colon
[25] = test system: KM20L2 colon
[26] = test system: LOX IMVI melanoma
[27] = test system: LXFL 529 NSCLC
[28] = test system: M14 melanoma
[29] = test system: M19-MEL melanoma
[30] = test system: MALME-3M melanoma
[31] = test system: MDA-MB-231 breast
[32] = test system: MDA-MB-435
[33] = test system: MDA-N
[34] = test system: MOLT-4 leukemia
[35] = test system: NCI-H226 lung
[36] = test system: NCI-H23 lung
[37] = test system: NCI-H460 lung
[38] = test system: NCI-H522 lung
[39] = test system: NCI/ADR-RES ovarian
[40] = test system: OVCAR-3 ovarian
[41] = test system: OVCAR-4 ovarian
[42] = test system: OVCAR-5 ovarian
[43] = test system: OVCAR-8 ovarian
[44] = test system: PC-3 prostate
[45] = test system: RPMI-8226 leukemia
[46] = test system: RXF 393 renal
[47] = test system: RXF-631 renal
[48] = test system: SF-268 CNS
[49] = test system: SF-295 CNS
[50] = test system: SF-539 CNS
[51] = test system: SK-MEL-2 melanoma
[52] = test system: SK-MEL-28 melanoma
[53] = test system: SK-MEL-5 melanoma
[54] = test system: SK-OV-3 ovarian
[55] = test system: SN12C renal
[56] = test system: SNB-19 CNS
[57] = test system: SNB-75 CNS
[58] = test system: SNB-78 CNS
[59] = test system: SW-620 colon
[60] = test system: TK-10 renal
[61] = test system: U251 CNS
[62] = test system: UACC-257 melanoma
[63] = test system: UACC-62 melanoma
[64] = test system: UO-31 renal
[65] = test system: XF 498 CNS
[66] = test system: HOP-18 NSCLC

With CC(C)(Br)C(=O)C(Br)Br the GI50 [1] was 4.85 µM, the TGI [1] was 26.9 µM and 8.99 µM and the TGI [2] was greater than 54.4 µM. For the same molecule, the GI50 [3] was 11 µM, the TGI [3] was 37.3 µM and 41 µM and the GI50 [4] was 5.34 µM. The TGI [4] was 22.5 µM and 9.58 µM, the TGI [5] was 9.13 µM and the GI50 [6] was 5.21 µM. For the same molecule, the TGI [6] was 3.81 µM and 9.43 µM, the GI50 [7] was 2.72 µM and the GI50 [8] was 4.06 µM. The TGI [8] was 7.04 µM and 8.3 µM, the TGI [9] was 3.34 µM and the TGI [10] was 18.1 µM. For the same molecule, the TGI [11] was 26.9 µM, the TGI [12] was 70.6 µM and the GI50 [13] was 5.23 µM. The TGI [13] was 26.8 µM and 9.94 µM, the TGI [14] was 30.8 µM and the GI50 [15] was 5.33 µM. For the same molecule, the TGI [15] was 9.91 µM and 9.61 µM, the GI50 [16] was 4.88 µM and the TGI [16] was > 21.9 µM and 9.57 µM. The GI50 [17] was 6.35 µM, the GI50 [18] was 59.7 µM and the TGI [18] was > 56.5 µM and 104 µM. For the same molecule, the GI50 [19] was 4 µM, the TGI [19] was 3.16 µM and 8.12 µM and the TGI [20] was 19.9 µM. The GI50 [21] was 6.16 µM, the TGI [21] was 24 µM and 11.8 µM and the GI50 [22] was 3.66 µM. For the same molecule, the TGI [22] was 21.8 µM and 8.09 µM, the GI50 [23] was 2.28 µM and the GI50 [24] was 5.8 µM. The TGI [24] was 30.8 µM and 11.7 µM, the TGI [25] was 32.2 µM and the GI50 [26] was 3.09 µM. For the same molecule, the TGI [26] was 16.8 µM and 7.13 µM, the TGI [27] was 5.87 µM and the GI50 [28] was 5.42 µM. The TGI [28] was 7.07 µM and 9.69 µM, the TGI [29] was 16.1 µM and the GI50 [30] was 4.92 µM. For the same molecule, the TGI [30] was 3.67 µM and 9.42 µM, the TGI [31] was 10 µM and the TGI [32] was 9.98 µM. It also gave a TGI [33] of 9.54 µM, a TGI [34] of 5.1 µM and a GI50 [35] of 7.5 µM. For the same molecule, the TGI [35] was 30.6 µM and 21.3 µM, the GI50 [36] was 5.84 µM and the TGI [36] was 15.7 µM and 10.5 µM. The GI50 [37] was 5.75 µM, the TGI [37] was 34.4 µM and 11.4 µM and the GI50 [38] was 1.37 µM. The TGI [38] was 3.18 µM and 5.16 µM, the TGI [39] was 12.6 µM and the GI50 [40] was 5.76 µM. The TGI [40] was 18.6 µM and 10.6 µM, the TGI [41] was 10.9 µM and 9.91 µM and the GI50 [42] was 5.26 µM. The TGI [42] was 30.6 µM and 9.58 µM, the TGI [43] was 14.9 µM and 9.13 µM and the TGI [44] was 11 µM. The GI50 [45] was 2.31 µM and 1.14 µM, the TGI [45] was 6.29 µM and 6.22 µM and the GI50 [46] was 5.31 µM. For the same molecule, the TGI [46] was 10 µM and 9.81 µM, the TGI [47] was 27.1 µM and the GI50 [48] was 7.42 µM. The TGI [48] was 27.1 µM and 26 µM, the GI50 [49] was 21.1 µM and the TGI [49] was 32.8 µM and 63.3 µM. The GI50 [50] was 5.42 µM, the TGI [50] was > 48.2 µM and 9.97 µM and the GI50 [51] was 5.75 µM. For the same molecule, the TGI [51] was 28.8 µM and 10.8 µM, the GI50 [52] was 4.93 µM and the TGI [52] was 22.1 µM and 9.12 µM. For the same molecule, the GI50 [53] was 5.55 µM, the TGI [53] was 25 µM and 9.92 µM and the GI50 [54] was 32.8 µM. For the same molecule, the TGI [54] was 31.3 µM and 69.8 µM, the GI50 [55] was 6.13 µM and the TGI [55] was > 43.1 µM and 11.2 µM. The TGI [56] was 33.9 µM and 59.4 µM, the GI50 [57] was 5.04 µM and the TGI [57] was 26.7 µM and 9.38 µM. For the same molecule, the TGI [58] was 13.9 µM, the GI50 [59] was 5.12 µM and the TGI [59] was 3.59 µM and 10.4 µM. For the same molecule, the GI50 [60] was 4.95 µM, the TGI [60] was 23.5 µM and 9.15 µM and the GI50 [61] was 9.65 µM. For the same molecule, the TGI [61] was > 44.7 µM and 33.3 µM, the GI50 [62] was 5.21 µM and the TGI [62] was 22.4 µM and 9.43 µM. The GI50 [63] was 5.85 µM, the TGI [63] was 22.5 µM and 10.2 µM and the GI50 [64] was 5.5 µM. For the same molecule, the TGI [64] was 31.4 µM and 9.8 µM and the TGI [65] was 23.8 µM.

Molecule COc1ccc(/C=C2\CCC(C)(CN(C)C)C2=O)cc1OC (centres undefined) has a TGI [1] greater than 100 µM, a TGI [2] greater than 100 µM and a TGI [3] greater than 100 µM. The TGI [4] was greater than 100 µM, the TGI [6] was greater than 100 µM and the TGI [7] was greater than 100 µM. It also gave a TGI [8] greater than 100 µM, a TGI [9] greater than 100 µM and a TGI [10] greater than 100 µM. The TGI [11] was greater than 100 µM, the TGI [13] was greater than 100 µM and the TGI [14] was greater than 100 µM. It also gave a TGI [15] greater than 100 µM, a TGI [16] greater than 100 µM and a TGI [66] greater than 100 µM. It also gave a TGI [18] greater than 100 µM, a TGI [19] greater than 100 µM and a TGI [21] greater than 100 µM. It also gave a TGI [22] greater than 100 µM, a TGI [23] greater than 100 µM and a TGI [24] greater than 100 µM. The TGI [25] was greater than 100 µM, the TGI [26] was greater than 100 µM and the TGI [27] was greater than 100 µM. It also gave a TGI [28] greater than 100 µM, a TGI [29] greater than 100 µM and a TGI [30] greater than 100 µM. It also gave a TGI [34] greater than 100 µM, a TGI [35] greater than 100 µM and a TGI [36] greater than 100 µM. It also gave a TGI [37] greater than 100 µM, a TGI [38] greater than 100 µM and a TGI [40] greater than 100 µM. It also gave a TGI [41] greater than 100 µM, a TGI [42] greater than 100 µM and a TGI [43] greater than 100 µM. For the same molecule, the TGI [45] was greater than 100 µM, the TGI [46] was greater than 100 µM and the TGI [47] was greater than 100 µM. It also gave a TGI [48] greater than 100 µM, a TGI [49] greater than 100 µM and a TGI [50] greater than 100 µM. The TGI [51] was greater than 100 µM, the TGI [52] was greater than 100 µM and the TGI [53] was greater than 100 µM. For the same molecule, the TGI [55] was greater than 100 µM, the TGI [56] was greater than 100 µM and the TGI [57] was greater than 100 µM. It also gave a TGI [58] greater than 100 µM, a TGI [59] greater than 100 µM and a TGI [60] greater than 100 µM. For the same molecule, the TGI [61] was greater than 100 µM, the TGI [62] was greater than 100 µM and the TGI [63] was greater than 100 µM. It also gave a TGI [64] greater than 100 µM.
